# Measurements published in BindingDB's records for PubMed 38746901 (Smith, Gambrell & Russell).
# Test: Inhibition of human recombinant GST tagged NIK incubated for 2 hrs in presence of ATP by alpha screen assay
row,Structure (SMILES),IC50
1,CN1CC(F)(F)[C@@](O)(c2cc(-c3cccc(-c4ccnc(Nc5cnn(C)c5)n4)n3)no2)C1=O,< 50 nM
2,Cc1nocc1Nc1nccc(-c2cccc(-c3cc([C@]4(O)CCN(C)C4=O)on3)n2)n1,< 50 nM
3,CN1CC[C@@](O)(c2cn(-c3cccc(-c4ccnc(Nc5ccn(C)n5)n4)n3)nn2)C1=O,< 50 nM
4,CN1CC[C@@](O)(c2nnc(-c3cccc(-c4ccnc(Nc5cnn(C)c5Cl)n4)n3)s2)C1=O,< 50 nM
5,CN1CC[C@@](O)(c2cc(-c3cccc(-c4ccnc(Nc5cnn(C)c5C5CC5)n4)n3)no2)C1=O,< 50 nM
6,Cc1nscc1Nc1nccc(-c2cccc(-c3cc([C@]4(O)CCN(C)C4=O)on3)n2)n1,< 50 nM
